Measured values as given in US8524195B2, “Iron oxide nanoparticles as MRI contrast agents and their preparing method” (Korea Basic Science Institute, priority 2010, dated 2013).

Test system: colon cancer (HT-29) cells
Assay: XTT assay, relative viability of colon cancer (HT-29) cells
Assay type: cell-based
Conditions: after 24 hours
Procedure: Samples were prepared by introducing the nano contrast agents (CIONPs) and the iron oxide (Fe3O4) nanoparticle drug carriers (DOX-CIONPs) prepared in Examples 2 and 3 and anti-cancer medicines (Doxorubicine) into colon cancer (HT-29) cells by concentrations of 0.001, 0.01, 0.1, 1 and 10 mM. After 24 hours, XTT reagent was added to each sample and relative viability of cancer cells according to the concentration of CIONPs, DOX-CIONPs and anti-cancer medicines (Doxorubicine) were measured. The measurement was carried out by comparing optical absorbances of formazan products from the cancer cells using an absorption spectrometer (XTT assay).

## COc1cccc2c1C(=O)c1c(O)c3c(c(O)c1C2=O)C[C@@](O)(C(=O)CO)C[C@@H]3O[C@H]1C[C@H](N)[C@H](O)[C@H](C)O1 [Doxorubicine]
0.1 mM
  cancer cells perished: 35%
1 mM
  cancer cells perished: 60%
10 nm (so in the source)
  cancer cells perished: 62%
